Data from US7183061B2, “Method of expressing Heliothis ecdysone receptor fusion protein” (Syngenta Limited, priority 1996, dated 2007).

Molecular target: T1, chimeric ecdysone receptor and reporter gene cassette (pES1) (UniProt O18473+P04150)
T1 construct: expressed in transfected cells; host or cells: stably transformed tobacco plants (A9)
T1 sequence (P04150+O18473 with tags, fused parts or gaps): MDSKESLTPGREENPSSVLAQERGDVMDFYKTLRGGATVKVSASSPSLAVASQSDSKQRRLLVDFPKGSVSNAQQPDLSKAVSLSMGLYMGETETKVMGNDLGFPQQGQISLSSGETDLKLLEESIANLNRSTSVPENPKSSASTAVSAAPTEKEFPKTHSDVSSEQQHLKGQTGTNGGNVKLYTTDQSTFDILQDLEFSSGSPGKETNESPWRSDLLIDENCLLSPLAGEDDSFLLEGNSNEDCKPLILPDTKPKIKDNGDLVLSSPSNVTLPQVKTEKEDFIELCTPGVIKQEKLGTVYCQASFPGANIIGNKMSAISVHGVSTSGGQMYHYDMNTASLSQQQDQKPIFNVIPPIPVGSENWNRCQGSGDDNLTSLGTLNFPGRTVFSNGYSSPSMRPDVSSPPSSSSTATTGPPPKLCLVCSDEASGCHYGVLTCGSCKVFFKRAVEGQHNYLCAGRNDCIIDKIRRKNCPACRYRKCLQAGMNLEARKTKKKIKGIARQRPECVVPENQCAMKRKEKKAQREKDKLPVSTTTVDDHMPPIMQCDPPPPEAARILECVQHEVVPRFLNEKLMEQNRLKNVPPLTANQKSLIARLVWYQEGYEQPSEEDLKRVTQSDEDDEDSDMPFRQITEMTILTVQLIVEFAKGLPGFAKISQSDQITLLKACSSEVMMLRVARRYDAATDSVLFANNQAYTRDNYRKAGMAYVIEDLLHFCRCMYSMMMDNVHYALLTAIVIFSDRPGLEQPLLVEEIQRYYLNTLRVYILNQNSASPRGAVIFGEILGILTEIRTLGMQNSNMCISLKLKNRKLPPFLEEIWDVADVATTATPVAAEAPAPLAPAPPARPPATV
Assay: GUS activity in stably transformed tobacco plants (pES1)
Format: in vivo, Heliothis virescens
Excerpt: The methodology described below was used to produce four different stable Tobacco vectors. The method involves three steps: • 1. pbluescript SK HindIII/EcoRI vector was ligated to either GRE6-4635SCaMVGUSNOS HindIII/EcoRI (from p221.10GRE6) or GRE6-6035SCaMVGUSNOS HindIII/EcoRI (from p221.9GRE6) resulting in plasmid pSK-46 and pSK-60. • 2. This step involves the addition of the chimeric receptor (35SGRHEcRNOS or 35SGRVP16HEcRNOS) to pSK-60 or pSK-46. Thus a pSK-60 (or pSK-46) XbaI vector was ligated with either the 3.4 kb 35SGRHEcRNOS XbaI or the 3.0 kb 35SGRVP16HEcRNOS XbaI DNA fragment to produce pSKES1 (pSKGRE6-6035SCaMVGUSNOS-35SGRHEcRNOS), pSKES2 (pSKGRE6-4635 SCaMVGUSNOS-35 SGRHEcRNOS), pSKES3 (pSKGRE6-6035SCaMVGUSNOS-35SGRVP16HEcRNOS) and pSKES4 (pSKGRE6-4635SCaMVGUSNOS-35SGRVP16HEcRNOS). • 3. Transfer from pBluescript based vectors to binary vectors. The transfer of the ES1 (FIG. 29) ES2 (FIG. 30), ES3 (FIG. 31) or ES4 (FIG. 32) DNA fragments into the binary vector JR1 involves five steps: • (i) Restriction enzyme digestion of pSKES1 (ES2, ES3, and ES4) with ApaI and NotI to liberate the insert from the vector pBluescript. • (ii) The two DNA fragments were BamHI methylated for 2 hours at 37° C. in TRIS-HCl, MgCl, 80 μM SAM (S-adenosylmethionine) and 20 U of BamHI methylase. • (iii) Ligate an ApaI/NotI linker onto the fragment. The linker was designed to have an internal BamHI site: • ApaBNot1 5′ cattggatccttagc 3′ (SEQ ID NO: 46) and • ApaBNot2 5′ […] 3′ (SEQ ID NO: 47). • (iv) Restriction enzyme digest the protected and linkered fragment with BamHI and fractionate the products on a 1% (w/v) agarose gel. The protected DNA fragment (5.5 kb) was cut out of the gel and purified. • (v) A ligation of JRI BamHI vector with the protected band was carried out to produce JRIESI (JRIES2, JRIES3 or JRIES4). The DNA of the recombinant was characterised by restriction mapping and the sequence of the junctions determined. […]

Measured: GUS activity

CCc1ccc(C(=O)NN(C(=O)c2cc(C)cc(C)c2)C(C)(C)C)cc1 [RH5992, 3,5-dimethylbenzoic acid 1-1(1,1-dimethylethyl)-2(4-ethylbenzoyl)hydrazide]
significantly elevated: 5 mM foliar application, 8 week old glasshouse grown tobacco plants | seedlings grown hydroponically in the presence of inducer | transgenic tobacco treated in cell culture, 100 μM in MS media
